Non-standard residues stand in square brackets, D forms with d. No end group written: not given here.
Experiments:
smad2 [1] = test: Phospho-Smad2 sandwich ELISA in MCF-7 cells (lack functional TBRII); type: cell-based; conditions: for phosphorylation of smad2: MCF-7 cells (do not express TBRII)
Procedure: (§1) Phosphorylation of smad2 was determined by Enzyme-Linked Immunosorbent Assay (ELISA) using a kit obtained from a commercial source. The Phospho-Smad2 Sandwich ELISA Kit is a solid phase sandwich enzyme-linked immunosorbent assay (ELISA) that recognizes endogenous levels of phospho-Smad2 (Ser465/467) and Smad3 (Ser423/425) proteins. A Smad2/3 Mouse Antibody has been coated on the microwells. After incubation with cell lysates, Smad2/3 proteins (phospho and nonphospho) are captured by the coated antibody. Following extensive washing, a Phospho-Smad2 (Ser465/467)/Smad3 (Ser423/425) Detection Antibody is added to detect captured phospho-Smad2 (Ser465/467) and phospho-Smad3 (Ser423/425) proteins. Anti-rabbit IgG, HRP-linked Antibody is then used to recognize the bound detection antibody. HRP substrate, TMB, is added to develop color. The magnitude of the absorbance for this developed color is proportional to the quantity of phospho-Smad2 (Ser465/467) and phospho-Smad3 (Ser423/425) proteins.

[2] = system: carrageenan-induced inflammation in rat paw; test: Carrageenan-induced paw edema (plethysmometer); type: in vivo, albino rats
Excerpt: INFLAMMATORY DISEASES AND FIBROTIC DISEASES: NF-κB is a prototypical proinflammatory signaling pathway, based on the activation of NF-κB by proinflammatory cytokines such as interleukin 1 (IL-1) and tumor necrosis factor a (TNF-α), and the subsequent role of NF-κB in the expression of other proinflammatory genes including cytokines, chemokines, and adhesion molecules. Inhibition of NF-κB can be expected to result in amelioration of inflammation. This was confirmed experimentally using peptide SEQ ID NO:042 in a standard model of carrageenan-induced inflammation in rat paw. This method measures acute inflammation induced by injection of carrageenan (Sakat et al., Inflammation 37(1):1-9 (2014)) and is used extensively to study antiinflammatory properties of drugs. Carrageenan is known to activate NF-κB (Bhattacharyya et al., Mediators of Inflammation, Vol. 2013, Article ID 397642; Bhattacharyya et al., American Journal of Physiology 301(3):G475-G486 (2011); Ellis et al., Ann. Rheum. Dis. 59:303-307 (2000); Pierce et al., J. Biol. Chem. 272:21096-21103 (1997)). Example 6 and FIG. 11 show the high efficacy of peptide SEQ ID NO:042 in alleviating edema and inflammation. […] Treatment of inflammation requires the subsidence of TNF-α and NF-κB pathways, which are part of the action of the disclosed peptides.
Groups (n=6) of healthy albino rats were injected in the paw with 3 mg carrageenan alone in phosphate buffered saline (PBS). […] As inflammation became obvious (15 min) in carrageenan-treated animals, test animals were injected with 70 nanogram of peptide SEQ ID NO:001, or peptide SEQ ID NO:042 in PBS. A plethysmometer was used to measure paw edema at 0, 0.5, 1.0, 2.0, 3.0, 6.0, 12.0, and 24 hours after injections. […] In contrast, animals not receiving peptide continued to show significant inflammation at all time points.

[3] = system: chemically induced tumor in hamster cheek; test: DMBA-induced oral tumor in hamster buccal pouch, topical peptide gel; type: in vivo, Syrian hamsters; conditions: for histology of DMBA-treated tissue after peptide treatment: hamster cheek, FIG. 6C
Procedure: A peptide inhibitor of NF κB activity disclosed herein was tested for treatment of induced oral tumors. Male Syrian hamsters aged 8 to 10 weeks weighing between 100 and 110 g were used. The animals were fed a standard pellet diet and water ad libitum, and were maintained in accordance with applicable ethical and institutional guidelines. The animals were randomized into 10 groups of 8 animals each, and the right buccal pouches of hamsters in groups 1-5 were painted with 0.5% 7,12-dimethylbenz[a]anthracene (DMBA) in liquid paraffin three times a week for 12 weeks.
Mucoadhesive gels containing peptides were prepared by slowly adding Noveon AA1 (0.675% w/w) and Carbopol 971P NF (0.788% w/w) to purified water. The mixture was stirred at 1,025 rpm for one hour to allow full rehydration. Then 0.9% w/w glycerine, 2-phenoxyethanol, benzyl alcohol, and EDTA were added, followed by mixing at 875 rpm for one hour at room temperature. Finally, the desired peptide was added to the gel, and the gel mixed at 875 rpm for one hour to homogenize the gel (Kavitha et al., Biochimie 102:56-67 (2014); Mallery et al., Pharm Res. 24(4):728-737 (2007)).
Hamsters in Group 1 received no further treatment. For hamsters in Groups 2 and 3, peptide gel was applied topically to the right buccal pouches of the hamsters from the 12th to the 18th week daily at concentrations of 10 microgram/ml (2.35 microgram dosage of peptide per application) and 100 microgram/ml (23.5 microgram dosage of peptide per application) respectively. Another group of animals painted with liquid paraffin alone served as control. The experiment was terminated after 18 weeks and all animals were sacrificed by cervical dislocation after an overnight fast.

[4] = system: carrageenan-induced hyperalgesia in rat paw; test: Carrageenan-induced hyperalgesia in rat paw (modified Randell-Selitto paw withdrawal method); type: in vivo, albino rats; conditions: 3 mg carrageenan, 70 nanogram peptide
Procedure: To establish the efficacy of the disclosed peptide inhibitors of NF-κB activity in analgesia, hyperalgesia was induced in rat paws with injections of carrageenan. The experiment is as described in Example 5. Injection of carrageenan in a hind paw of rats produced severe hyperalgesia. […] Only the results with peptide SEQ ID NO:042 are shown here.
The ability of the disclosed peptides to affect nociception was determined using a modification of the Randell-Selitto paw withdrawal method. Groups (n=6) of healthy albino rats were injected in the paw with 3 mg carrageenan alone in phosphate buffered saline (PBS). […] As inflammation became obvious (15 min) in carrageenan-treated animals, test animals were injected with 70 nanogram of peptide SEQ ID NO:001, or peptide SEQ ID NO:042 in PBS. The animals are allowed to walk on a metal grid before and after injecting the drugs and the observations were noted. The scoring system was based on normal gait=1, marked limping=0.5, and three legged gait=0. The scores are transformed into percent analgesia and subjected to statistical analysis. The two peptides gave very similar results. The results shown in FIG. 10 are from animals treated with peptide SEQ ID NO:042.

[5] = system: oral cancer cell line AW 13516; test: Cell cycle analysis by flow cytometry (propidium iodide); type: cell-based
Procedure: Cell cycle analysis was performed in oral cancer cell line AW 13516 after treatment with TGF-β alone, peptide alone or in combination. Cell cycle analysis was carried out using flow cytometry (Guava Technologies) using reagent kits provided by the instrument maker. The samples were prepared after propidium iodide staining and flow cytometric analysis was performed. TGF-β causes G1 arrest in cells as expected. The disclosed peptides in contrast markedly shortened the G1 phase and prolonged the S-phase, promoting a more faithful synthesis of DNA prior to cell division. Thus, the disclosed peptides have effects which differ from the effects of growth factors.

NF κB = NF κB luciferase reporter assay (dual luciferase) in transfected SiHa cells; type: cell-based; conditions: 24 hours of treatment
Procedure: SiHa cells (ATCC HTB-35) were seeded in the wells of a 96 well plate at 25,000 cells/well. The cells were transfected with the respective luciferase construct (p-SBE4, p-ARE-Luc in combination with FAST-1, p-NF κB) using Lipofectamine 2000 reagent (Invitrogen Technologies Inc.), as per the manufacturer's instructions. 18 hours post transfection; the cells were subjected to the respective treatments such as TGF-β, TNF-α, and the peptides. After 24 hours of treatment, the plates were removed from the incubator; medium from the cells was discarded. The wells were filled with 50 μl of PLB (passive lysis buffer) provided along with the Promega dual luciferase assay kit. The luciferase assay was performed as per the supplier's instruction manual, after transferring the lysates to a white plate for luminescence measurements. Expression of luciferase, and measurement of the resulting luminescence, thus provides a measurement of the extent of expression of NF-κB.
As per the data in FIG. 2, the disclosed peptides inhibit TNF-α-activation of NF-κB. As per the data in FIG. 3, the disclosed peptide LFAP[D]EA (SEQ ID NO:013) inhibits both TNF-α-induced and constitutive activation of NF-κB. The ratio between the firely/renilla luciferase was used to compare TNF-α induced activation of NF-κB over constitutive NF-κB activity.

smad2 [6] = test: Phospho-Smad2 sandwich ELISA in HepG2 cells; type: cell-based; conditions: HepG2 cells (TBRII and TBRI present)
Procedure: TGF-β signaling requires both receptors.
as §1

p65 subunit of NF κB = test: Western blot for p65 (NF κB) phosphorylation in SiHa cells; type: cell-based; conditions: Western blot (FIG. 4)
human dermal fibroblasts = test: Gene microarray analysis of gene expression; type: cell-based; conditions: 1.0 micromolar peptide
Excerpt: (§2) NF κB inhibitor peptide SEQ ID NO: 010 down-regulates expression of genes known to be associated with the pathobiological action of NF κB and TNF α. […] The upregulation of certain target genes by the transcription factor NF κB is a major contributory factor in diseases and disorders attributed to the activation of NF κB. The downregulation of these genes by the NF κB inhibitor peptides can be expected to provide prophylaxis and therapy for such disorders. (The downregulation of some of these genes was confirmed in vivo in a study to examine the efficacy of NF κB inhibitor peptide, SEQ ID NO: 010.) Certain genes were also tested in a rodent squamous cell carcinoma model, by PCR and by immunoblots (mRNA levels were monitored by PCR and the corresponding protein levels were monitored by immunoblots).

[7] = In vivo study confirming gene downregulation
Excerpt: as §2

Row | Compound | % CELLS IN G1 Phase [5] [%] | % CELLS IN Go Phase [5] [%] | % CELLS IN M Phase [5] [%] | % CELLS IN S Phase [5] [%] | also measured
1 | NC(=O)c1ccc(-c2nc(-c3ccc4c(c3)OCO4)c(-c3ccccn3)[nH]2)cc1 [SB431542, 4-[4-(1,3-benzodioxol-5-yl)-5-(2-pyridinyl)-1H-imidazol-2-yl]benzamide, reference compound] | – | – | – | – | effect on peptide-induced smad2 phosphorylation (smad2 [1]; MCF-7 cells, with peptide LIANAK): did not prevent smad2 phosphorylation
2 | ANVAENA [SEQ ID NO:042] | 62.73 | 2.02 | 19.10 | 16.14 | anti-inflammatory efficacy relative to that reported for celecoxib ([2]; compared with literature value for celecoxib): approximately 103 times; edema and inflammation at 2 h ([2]; rat paw, 3 mg carrageenan, 70 nanogram peptide, 2 h): significant decrease in edema and inflammation; inflammation by 3.0 h ([2]; rat paw, 3 mg carrageenan, 70 nanogram peptide, 3.0 h): subsided almost completely; inflammation up to 24 h post injection ([2]; rat paw, 3 mg carrageenan, 70 nanogram peptide, up to 24 h): no inflammation was noted; histology of DMBA-treated tissue after peptide treatment [3]: an effect at the microscopic level; tumor growth in hamster cheek ([3]; topical, six weeks, 100 microgram/ml (23.5 microgram per application), after DMBA): marked inhibition of tumor growth; nociception (hyperalgesia) [4]: markedly ameliorated nociception
3 | LFAP[D]EA (LFAP[dE]A) [SEQ ID NO:013] | 62.05 | 2.87 | 14.86 | 20.21 | inhibition of constitutive activation of NF-κB (NF κB; Renilla luciferase): inhibits; inhibition of TNF-α-induced activation of NF-κB (NF κB; firefly luciferase): inhibits
4 | LIANAK [SEQ ID NO:060] | – | – | – | – | phosphorylation of smad2 (smad2 [1]): causing the phosphorylation of smad2; phosphorylation of smad2 (smad2 [6]): induce phosphorylation
5 | LIAPEA [SEQ ID NO:061] | 60.05 | 2.33 | 18.59 | 19.03 | –
6 | LIAP[D]EA (LIAP[dE]A) [SEQ ID NO:014] | 62.69 | 3.19 | 13.52 | 19.78 | –
7 | LWAEAK [SEQ ID NO:008] | – | – | – | – | inhibition of phosphorylation of the p65 subunit of NF κB (p65 subunit of NF κB): inhibition of phosphorylation
8 | NVAENA [SEQ ID NO:010] | – | – | – | – | expression of genes associated with the pathobiological action of NF κB and TNF α (human dermal fibroblasts): down-regulates; histology of DMBA-treated tissue after peptide treatment [3]: histology is closer to normal histology after treatment; downregulation of some of these genes in vivo [7]: confirmed
9 | SEQ ID NO:057: peptide of FIG. 8B (SEQ ID NOS:041 through 069), disclosed in U.S. Pat. Nos. 5,661,127, 5,780,436 and 6,638,912; sequence not printed (LIAGEG) | 52.59 | 14.59 | 11.18 | 21.63 | –
10 | TGF-β | 79.83 | 8.32 | 8.23 | 3.62 | phosphorylation of smad2 (smad2 [1]): do not respond; phosphorylation of smad2 (smad2 [6]): induce phosphorylation
11 | TNWAEN [SEQ ID NO:015] | – | – | – | – | inhibition of phosphorylation of the p65 subunit of NF κB (p65 subunit of NF κB): inhibition of phosphorylation
12 | TWAPES [SEQ ID NO:016] | – | – | – | – | inhibition of phosphorylation of the p65 subunit of NF κB (p65 subunit of NF κB): inhibition of phosphorylation
13 | TWSPEL [SEQ ID NO:017] | – | – | – | – | inhibition of phosphorylation of the p65 subunit of NF κB (p65 subunit of NF κB): inhibition of phosphorylation
14 | YMAPEV [SEQ ID NO:001] | – | – | – | – | paw edema pattern compared with peptide SEQ ID NO:042 ([2]; rat paw, 70 nanogram peptide, 0 to 24 hours): nearly identical patterns; nociception (hyperalgesia) [4]: markedly ameliorated nociception

— patent US11174286B2, “Inhibitors of NF κ-B activity for treatment of diseases and disorders” (priority 2014, dated 2021)
